Activity calls are given as the source filed them.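 The calls were made as follows: active = compounds giving half or more protection of infected cells from virus-caused growth loss, again on retest; inactive = the rest.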
Tested on: CEM cells HIV-1 protection, formazan growth assay
Assay: NCI AIDS Antiviral Assay
Details: for IC50: measured here: growth of uninfected CEM cells
In short: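 Human CEM cells, uninfected and HIV-1-infected, exposed to five drug concentrations; growth measured by soluble formazan assay and scored as percent protection from infection, with protecting compounds retested.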

Row | Compound | EC50 | IC50 | outcome
1 | Cc1ccc(-c2c(C#N)c(S)n(NS(=O)(=O)c3ccccc3)c(=O)c2C#N)cc1 | > 200 µM | 18.6 µM | 
2 | CC12CC(C#N)(C#N)C(C#N)(CO1)C(=N)O2 (centres undefined) | > 200 µM | 42.7 µM | 
3 | COc1cc2c(-c3onc4ccc(OCc5ccccc5)cc34)nccc2c(OC)c1OC |  |  | inactive
4 | O=C(CC(C(=O)c1ccco1)c1ccco1)c1ccco1 (centres undefined) | > 200 µM | 145 µM | 
5 | CC(C)OP(=S)(NC(=S)c1ccccc1)OC(C)C | > 741 µM | 178 µM | 
6 | c1ccc(C2=NN(c3ccccc3)CC2)cc1 |  |  | inactive
7 | CC(=C\c1ccccc1)/C=C1/NC(=O)NC1=O | > 200 µM | 129 µM | 
8 | Oc1cc(O)c(Oc2cccc(O)c2O)c(O)c1 | > 1000 µM | 38.9 µM | 
9 | O=C(C[n+]1ccccc1)N/N=C(/CCC(=O)N(Cc1ccccc1)Cc1ccccc1)CC(=O)c1ccccc1 | > 437 µM | > 437 µM | 
10 | Nc1ncnc2c1ncn2C1OC(CO)C2NP(=O)(N(CCCl)CCCl)OC21 (centres undefined) | > 200 µM | > 200 µM | inactive
11 | CC(=O)C1(N=Nc2ccc(S(=O)(=O)Nc3ccccn3)cc2)CCOC1=O (centres undefined) | > 200 µM | > 200 µM | 
12 | COc1ccc2c(c1)CC[C@@H]1[C@@H]2CC[C@]2(C)C(=O)/C(=N/O)C[C@@H]12 | > 200 µM | 8.51 µM | 
13 | C/C=C/[C@@]1(OC(=O)c2ccccc2)C[C@@H]2CCCC[C@@H]21 |  |  | inactive
14 | CC(=O)Nc1c(C#N)c2n(c1C(=O)Nc1ccc(S(N)(=O)=O)cc1)CCC2 | > 200 µM | > 200 µM | 
15 | Cc1nnc2cc(C(=O)O)c3ccccc3n2c1=O | > 200 µM | > 200 µM | 
16 | Cc1csc(NNC(=O)Nc2ccccc2)n1 | > 129 µM | 43.7 µM | 
17 | O=C1NC2c3ccccc3CCC12 (centres undefined) | > 1450 µM | > 1450 µM | 
18 | COc1c(-c2ccccc2)nc2ccc(Oc3ccccc3)nn12 | > 56.2 µM | > 56.2 µM | 
19 | Cc1ccc(S(=O)(=O)N2CC(O)C=Cc3ccccc32)cc1 (centres undefined) | > 200 µM | 3.16 µM | 
20 | Cc1nc2c(C#N)c3n(c2c(=O)o1)CCCC3 | > 200 µM | > 200 µM | 
21 | Cc1cn(C2CC(O[Si](C)(C)C(C)(C)C)C(CNC(=O)N(O)C3CC(n4cc(C)c(=O)[nH]c4=O)OC3CO[Si](C)(C)C(C)(C)C)O2)c(=O)[nH]c1=O (centres undefined) | > 200 µM | 2.09 µM | 
22 | Cc1ccc(SSc2ccc([N+](=O)[O-])cc2)cc1 | > 200 µM | 9.55 µM | 
23 | O=c1ncccn1C1OC(CO)C(O)C1F (centres undefined) |  |  | inactive

Row | Compound | EC50 | IC50 | outcome
24 | Cc1csc2nc3c(cnn3C)c(=S)n12 | > 200 µM | 38.9 µM | 
25 | CCCNC(=S)/N=C\c1c(O)c2ccccc2oc1=O | > 200 µM | > 200 µM | 
26 | c1ccc(C2N3CCCCC3[C@@H]3c4[nH]c5ccccc5c4CCN23)cc1 (some centres undefined) | > 20.9 µM | > 20.9 µM | 
27 | C[n+]1c2ccccc2n2c3ccccc3c(NCCCN3CCOCC3)c(C#N)c21 | > 20 µM | 0.676 µM | 
28 | CC(=O)Nc1ccc2c(c1)nc1c3ccccc3ccn21 | > 200 µM | 29.5 µM | 
29 | CN(C)CC/C(=N\Nc1ccccc1)c1ccccc1 |  |  | inactive
30 | COc1cc(CN=c2nc(N(C)C)ss2)cc(OC)c1OC | > 100 µM | 6.92 µM | 
31 | COc1ccc2c(c1)[n+](=O)c(C(=O)C/C(=N/NC(=O)c1ccccc1O)C(=O)Nc1ccc(Cl)c(C(F)(F)F)c1)c(C)n2[O-] | > 1.2 µM | > 1.2 µM | 
32 | Cc1ccc2c(c1)sc1n[nH]c(=S)n12 | > 117 µM | > 117 µM | 
33 | Cc1nc(N)nc(CCC(=O)Nc2cccc(C(F)(F)F)c2)c1-c1ccc(Cl)cc1 | > 302 µM | > 302 µM | 
34 | COC(=O)/C(=N\NC(C)(C)C)C(C(=O)C(=O)Nc1cc(C)ccc1C)c1nc2ccccc2[nH]c1=O (centres undefined) |  |  | inactive
35 | Nc1nc(SSc2nc(N)nc3c2ncn3C2OC(CO)C(O)C2O)c2ncn(C3OC(CO)C(O)C3O)c2n1 (centres undefined) | > 20 µM | 0.339 µM | 
36 | O=C(Nc1ccc2c(O)c(N=Nc3ccc4c(O)cc(S(=O)(=O)O)cc4c3)c(S(=O)(=O)O)cc2c1)c1ccccc1 | 18.6 µM | 50.1 µM | 
37 | COc1cc(CNc2cnc3cc(N)ccc3n2)cc(OC)c1OC | > 200 µM | 6.46 µM | 
38 | O=C(c1c(F)c(F)c(F)c(F)c1F)N1CCN(C(=O)c2c(F)c(F)c(F)c(F)c2F)C1=S | > 200 µM | 1.26 µM | 
39 | CCOC(=O)C1=C(C(=O)OCC)C2(c3ccccc3)N(O1)c1ccccc1C2(C)C (centres undefined) |  |  | inactive
40 | Fc1ccc2c3c([nH]c2c1)CCN(Cc1ccccc1)C3 | > 200 µM | 38 µM | 
41 | C=CCN=C1N=C(C)C(C(=O)OCC)S1 (centres undefined) | > 30.2 µM | 17.8 µM | 
42 | CCOP(OCC)SSCn1nc2ccc3ccccc3n2c1=O | > 200 µM | 70.8 µM | 
43 | CC1=C(C)CC2(CC1)C(=O)NC(=O)NC2=O | > 832 µM | > 832 µM | 
44 | COc1ccc(N[C@H](CS(=O)c2ccc(C)cc2)C(F)(F)F)cc1 (some centres undefined) | > 200 µM | > 200 µM | 
45 | C=C(C(=O)C(=O)Oc1ccc(Cl)cc1)C(=O)c1ccc(C)cc1 | > 79.4 µM | > 79.4 µM | 
